The target of data set [1] is T1, AviM (Streptomyces viridochromogenes, UniProt O05170).
T1 construct: expressed in E. coli BAP1 (sfp), phosphopantetheinylated with CoA and Sfp before assay
Put plainly: LC-MS detection of orsellinic acid product. The format is biochemical. The following applies: 50 uM enzyme, 10 mM MgCl2, pH 7.4, 25 °C, with CoA and Sfp.

Data set [2] concerns the molecule itself. Put plainly: SEC; Superdex 200/Superose 6 gel filtration column, 150 mM NaCl, 10 mM Tris pH 7.5, 4 °C. Background: In gel filtration, larger molecules generally elute earlier.

T1 sequence (O05170 entry or part of it): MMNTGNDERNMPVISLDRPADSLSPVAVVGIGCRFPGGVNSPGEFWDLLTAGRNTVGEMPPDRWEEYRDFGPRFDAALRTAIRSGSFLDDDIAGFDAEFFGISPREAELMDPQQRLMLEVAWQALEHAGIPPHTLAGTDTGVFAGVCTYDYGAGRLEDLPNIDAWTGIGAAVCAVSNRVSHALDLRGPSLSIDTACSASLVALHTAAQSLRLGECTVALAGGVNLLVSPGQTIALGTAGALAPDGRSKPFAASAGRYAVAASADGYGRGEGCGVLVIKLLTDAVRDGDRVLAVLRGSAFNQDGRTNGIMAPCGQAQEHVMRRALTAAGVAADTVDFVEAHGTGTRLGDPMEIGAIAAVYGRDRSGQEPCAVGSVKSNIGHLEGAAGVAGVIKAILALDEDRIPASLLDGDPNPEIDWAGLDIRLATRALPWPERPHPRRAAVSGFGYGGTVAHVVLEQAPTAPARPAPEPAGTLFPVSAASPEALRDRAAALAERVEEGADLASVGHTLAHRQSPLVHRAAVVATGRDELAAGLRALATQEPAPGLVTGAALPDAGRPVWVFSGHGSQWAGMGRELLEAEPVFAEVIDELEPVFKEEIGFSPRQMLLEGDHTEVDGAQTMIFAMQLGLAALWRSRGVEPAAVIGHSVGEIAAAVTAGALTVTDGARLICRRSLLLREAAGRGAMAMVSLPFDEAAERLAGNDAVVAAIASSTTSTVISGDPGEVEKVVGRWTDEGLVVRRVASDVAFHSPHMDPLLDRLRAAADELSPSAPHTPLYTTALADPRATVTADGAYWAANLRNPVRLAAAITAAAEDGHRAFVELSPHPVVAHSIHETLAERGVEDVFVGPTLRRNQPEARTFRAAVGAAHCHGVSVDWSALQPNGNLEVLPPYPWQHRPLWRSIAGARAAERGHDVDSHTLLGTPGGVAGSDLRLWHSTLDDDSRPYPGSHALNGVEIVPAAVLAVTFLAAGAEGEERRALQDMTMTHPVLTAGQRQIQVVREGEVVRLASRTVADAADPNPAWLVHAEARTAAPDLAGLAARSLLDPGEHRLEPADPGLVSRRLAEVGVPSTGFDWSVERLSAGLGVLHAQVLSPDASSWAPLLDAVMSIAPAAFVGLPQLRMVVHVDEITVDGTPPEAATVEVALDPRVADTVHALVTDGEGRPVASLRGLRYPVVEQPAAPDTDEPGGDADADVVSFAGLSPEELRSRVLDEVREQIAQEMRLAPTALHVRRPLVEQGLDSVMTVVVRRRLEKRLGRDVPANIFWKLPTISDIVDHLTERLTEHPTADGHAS

Regarding `CC(=O)SCCNC(=O)CCNC(=O)[C@H](O)C(C)(C)COP(=O)(O)OP(=O)(O)OC[C@H]1O[C@@H](n2cnc3c(N)ncnc32)[C@H](O)[C@@H]1OP(=O)(O)O` [acetyl-CoA], the “LC-MS detection of orsellinic acid product” value in data set [1] (starter unit, malonyl-CoA co-substrate) was “Trace amount of OSA was indeed produced when AviM was incubated with acetyl-CoA and malonyl-CoA”.

As to `CC(C)(COP(=O)(O)OP(=O)(O)OC[C@H]1O[C@@H](n2cnc3c(N)ncnc32)[C@H](O)[C@@H]1OP(=O)(O)O)[C@@H](O)C(=O)NCCC(=O)NCCSC(=O)CC(=O)O` [malonyl-CoA], the “LC-MS detection of orsellinic acid product” value in data set [1] (extender unit, acetyl-CoA co-substrate) was “Trace amount of OSA was indeed produced when AviM was incubated with acetyl-CoA and malonyl-CoA”.

B1: AviM PT domain (product template domain of the orsellinic acid synthase AviM) (domain or fragment, Streptomyces viridochromogenes Tü57)
chain: DSHTLLGTPGGVAGSDLRLWHSTLDDDSRPYPGSHALNGVEIVPAAVLAVTFLAAGAEGEERRALQDMTMTHPVLTAGQRQIQVVREGEVVRLASRTVADAADPNPAWLVHAEARTAAPDLAGLAARSLLDPGEHRLEPADPGLVSRRLAEVGVPSTGFDWSVERLSAGLGVLHAQVLSPDASSWAPLLDAVMSIAPAAFVGLPQLRMVVHVDEITVDGTPPEAATVEVALDPRVADTVHALVTDGEGRPVASLRGLRYP
notes: AviM, orsellinic acid synthase (iterative type I PKS, KS-AT-PT-ACP) of Streptomyces viridochromogenes Tü57; excised PT domain cloned as an 816 bp NdeI/EcoRI fragment in pET28a; An 816 bp fragment codes for about 272 residues, more than the 260 of residues 915-1174; also called bacterial PT domain; source: E. coli BL21(DE3), purified (Nickel-NTA, gel filtration); not shown: His6, N-terminal, kept
For orientation: stoichiometry N means a count of units in the complex or per binding partner. On to B1, for which the “stoichiometry N” value in data set [2] amounted to 2.

The values are drawn from paper PMC9135731 (Communications Biology, 2022).
